Assay [1] has as its system GR. The assay can be described thus: GR nuclear translocation (immunofluorescence in HaCaT, Western blot of nuclear extracts in CEM). The assay is classed as cell-based, human. As to conditions: HaCaT cells, 1 uM FA. As for the experimental part:
FIG. 15. Rapamycin inhibits GR nuclear translocation and phosphorylation. A. GR nuclear translocation in HaCaT cells was determined by immunofluorescence as described in Materials and Methods. Cells on coverslips were pretreated with solvent (Control) or Rapamycin (1 uM×6 h) and treated with 1 uM FA for indicated time. B. GR nuclear translocation in CEM cells was determined by Western blot analysis of nuclear protein extracts. Membranes were probed with anti-HDAC-1 antibodies to verify equal protein loading and transfer. C, D. GR phosphorylation in HaCaT (C) and CEM (D) cells was determined by Western blot analysis of whole cell lysates. Membranes were probed with anti-GAPDH antibodies to verify equal protein loading and transfer.
GR nuclear translocation was determined by immunofluorescence in HaCaT cells. Cells infected with pGIPZ and shREDD1 lentiviruses were selected with puromycin, seeded on coverslips. After the treatments, cells were fixed with 2% formaldehyde and permeabilized with acetone:methanol (1:1 v/v). After blocking, cells were incubated with primary rabbit anti-GR antibody (H-300, Santa Cruz Biotechnology, Santa Cruz, Calif., USA) followed by secondary anti-rabbit FITC-conjugated antibody (Jackson Immuno Research). Cell nuclei were counterstained with DAPI (Invitrogen, Life Technologies, Grand Island, N.Y., USA). […]
For orientation: In western blotting, separated proteins are transferred to a membrane and probed.

The test system of assay [2] is REDD1. Nature of the assay: REDD1 expression in mouse epidermis and s.c. adipose (Q-PCR, Western blot, immunostaining). Type of assay: in vivo. The procedure: FIG. 16. […] F1 C57B1×129 mice were treated topically with solvent (control), FA ((2 μg/mouse×8 hrs) or pretreated with Rapamycin (500 nmol/mouse×6 hrs) followed by FA treatment for 8 h. RNA and whole cell proteins were extracted from epidermis isolated as described in Matherials and Methods. A. Q-PCR analysis of REDD1 expression. The results were normalized to the expression of the housekeeping Rp127 gene, and presented as fold of change compared to control animals. The means+/−SD calculated for three individual RNA samples/condition. a—Statistically significant difference (P<0.05) compared to control; b—Statistically significant differences (P<0.05) compared to FA treatment. B. Western blot analysis of whole cell proteins in epidermis. Membranes were probed with anti-GAPDH antibodies to verify equal protein loading and transfer. C. Ear edema test. Ear edema was induced by croton oil (CO, 20 ul/ear) as in Materials and Methods. Solvent (20 ul/ear) or FA (1 ug/ear) were applied 1 h before CO after 6 hrs of pre-treatment with rapamycin (200 ng/ear) or solvent. Mice were sacrificed and four-millimeter ear punches were weighed 9 h after CO application to assess swelling. Ear punch weight results are presented as % to control (only solvent treatment) ear weight The means+/−SD were calculated for six individual ear punches/condition in one representative experiment (out of three experiments). a—Statistically significant differences (P<0.05) compared to control treatment; b—Statistically significant differences (P<0.05) compared to CO or CO+rapa treatment.
Seven-week-old females in the telogen stage of the hair cycle were shaved and treated 3 days later. Glucocorticoid FA was applied topically (2 μg/animal) in 200 μl acetone to the back skin once or up to four times every third day as described (Chebotaev et al, 2007c). Control animals were treated with acetone only. Animals were injected i.p. with bromodeoxyuridine (BrdU, Sigma-Aldrich, 50 μg/g of animal weight) 1 h before skin was harvested. Epidermis and s.c. fat were isolated from the murine dorsal skin mechanically by scraping (Chebotaev et al, 2007c).
Sections of formalin-fixed, paraffin-embedded skin and ORCs were stained with hematoxylin and eosin (H&E), Masson's trichrome to evaluate the effect on dermis and collagen fibers (Sheehan & Hrapchack, 1980), and with antibodies against BrdU (BD Biosciences, San Jose, Calif., USA), keratins 1, 5, and 10, loricrin (Covance, Princeton, N.J.), phospho-mTORSer2448 (Cell Signaling Technology, Inc., Danvers, Mass., USA), REDD1 (Proteintech Group, Inc, Chicago, Ill.), p63 (eBioscience, San Diego, Calif., USA), and CD34 (Abcam, Cambridge, Mass., USA). […]

The values below come from US9980976B2, “Use of REDD1 inhibitors to dissociate therapeutic and adverse atrophogenic effects of glucocorticoid receptor agonists” (Northwestern University, priority 2015, dated 2018).

With `CC1(C)O[C@@H]2C[C@H]3[C@@H]4C[C@H](F)C5=CC(=O)C=C[C@]5(C)[C@@]4(F)[C@@H](O)C[C@]3(C)[C@]2(C(=O)CO)O1` [FA, fluocinolone acetonide], in assay [1], the “time GR remained in the nucleus” value is 2 to 24 h and the “time to GR nuclear import” value is recorded as 10 min. In assay [2] (B6D2 mice, 24 h after FA, Q-PCR), the “REDD1 expression in s.c. adipose versus epidermis” value is “equally activated in s.c. adipose and epidermis”. In addition, the “REDD1 expression in skin” value in assay [2] (F1 C57B1×129 mice, topical FA 2 ug/animal×24 h) was “strongly induced”. Also, the “REDD1 mRNA increase” value in assay [2] (epidermis of B6D2 mice, 4-24 h after the first FA application, Q-PCR) is given as about 4.5 fold. The REDD1 protein expression result in assay [2] (skin of B6D2 mice, Western blot and immunostaining, single and chronic FA) is on record as “induced REDD1 expression as early as 4-8 h after first application”.
